{"source": "patent US7501275B2", "about": "“Yeast transformation system” (The United States of America as represented by the …, priority 2004, dated 2009)", "test_system": "Pichia stipitis UC7 NRRL Y-21448", "assay": "Testing for sensitivity to Zeocin: plating on YPD pH 7.5 with Zeocin", "type": "cell-based", "details": "plated on YPD pH 7.5; Zeocin tested from 25 μg/ml to 500 μg/ml", "method": "Pichia stipitis UC7 NRRL Y-21448 (2) is a ura3 auxotrophic mutant of P. stipitis CBS 6054 (ARS Culture Collection, NRRL USDA Peoria, Ill.). To test if Pichia stipitis UC7 is sensitive to Zeocin, UC7 was plated on YPD (Kaiser, Michaelis and Mitchell, 1994) pH 7.5 (1% yeast extract, 2% peptone, 2% dextrose, NaOH to pH 7.5) in the presence of Zeocin (Invitrogen) at a concentration of from 25 μg/ml to 500 μg/ml. Zeocin concentrations of 100 μg/ml or greater killed Pichia stipitis UC7.", "data": [{"smiles": "Cc1c(N)nc([C@H](CC(N)=O)NC[C@H](N)C(N)=O)nc1C(=O)N[C@H](C(=O)N[C@H](C)[C@@H](O)[C@H](C)C(=O)N[C@H](C(=O)NCCC1=N[C@@H](c2nc(C(=O)NCCCCN=C(N)N)cs2)CS1)[C@@H](C)O)[C@@H](O[C@@H]1O[C@@H](CO)[C@@H](O)[C@H](O)[C@@H]1O[C@H]1O[C@H](CO)[C@@H](O)[C@H](OC(N)=O)[C@@H]1O)c1cnc[nH]1", "note": "[Zeocin]", "values": [{"measurement": "Zeocin concentrations that killed Pichia stipitis UC7", "result": "≥ 100", "unit": "µg/mL"}]}]}
